Source: US8629166B2, “5-cycloalkyl- or 5-heterocyclyl-nicotinamides” (Hoffmann-La Roche Inc., priority 2011, dated 2014)

Tests used:
human CB1 receptor = target: T1, human CB1 receptor (Homo sapiens, UniProt P21554); test: CB1 receptor affinity ([3H]-CP-55,940 displacement, HEK cell membranes); format: binding; settings: displacement of [3H]-CP-55,940 at 10 μM
T1 construct: expressed in transfected cells; host or cells: human embryonic kidney (HEK) cells, Semliki Forest Virus system, membrane preparation
T1 sequence (P21554 whole entry): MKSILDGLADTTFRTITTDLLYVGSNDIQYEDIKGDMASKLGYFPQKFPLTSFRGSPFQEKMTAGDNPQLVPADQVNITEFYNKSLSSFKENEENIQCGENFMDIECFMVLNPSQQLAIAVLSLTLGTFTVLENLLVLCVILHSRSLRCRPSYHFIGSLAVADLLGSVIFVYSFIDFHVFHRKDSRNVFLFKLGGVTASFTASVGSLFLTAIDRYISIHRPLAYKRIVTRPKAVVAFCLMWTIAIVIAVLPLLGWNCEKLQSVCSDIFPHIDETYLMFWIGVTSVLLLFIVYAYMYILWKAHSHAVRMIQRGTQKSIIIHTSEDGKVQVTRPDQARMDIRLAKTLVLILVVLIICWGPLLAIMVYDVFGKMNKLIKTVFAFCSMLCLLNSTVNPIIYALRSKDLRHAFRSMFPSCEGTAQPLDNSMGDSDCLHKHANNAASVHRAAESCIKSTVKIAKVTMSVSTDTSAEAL
Procedure: (§1) CB1 and CB2 Receptor Affinity
(§2) The affinity of the compounds of the invention for cannabinoid receptors was determined using membrane preparations of human embryonic kidney (HEK) cells in which the human CB1 receptor is transiently transfected using a Semliki Forest Virus system in conjunction with [3H]-CP-55,940 as radioligand. After incubation of freshly prepared cell membrane preparation with the [^3H]-ligand, with or without addition of compounds of the invention, separation of bound and free ligand was performed by filtration over glass fiber filters. Radioactivity on the filter was measured by scintillation counting.
(§3) The ability of the compounds to displace the radioligand [^3H]-CP-55,940 was measured at a concentration of 10 μM and values provided as [% inhibition @ 10 μM] both for the CB1 and CB2 receptor assay, The lower % inhibition is, the lower the likelihood of side effects based on CB1 or CB2 receptor inhibition is.

human CB2 receptor = target: T2, human CB2 receptor (Homo sapiens, UniProt P34972); test: CB2 receptor affinity ([3H]-CP-55,940 displacement, HEK cell membranes); format: binding; settings: displacement of [3H]-CP-55,940 at 10 μM
T2 construct: expressed in transfected cells; host or cells: human embryonic kidney (HEK) cells, Semliki Forest Virus system, membrane preparation
T2 sequence (P34972 whole entry): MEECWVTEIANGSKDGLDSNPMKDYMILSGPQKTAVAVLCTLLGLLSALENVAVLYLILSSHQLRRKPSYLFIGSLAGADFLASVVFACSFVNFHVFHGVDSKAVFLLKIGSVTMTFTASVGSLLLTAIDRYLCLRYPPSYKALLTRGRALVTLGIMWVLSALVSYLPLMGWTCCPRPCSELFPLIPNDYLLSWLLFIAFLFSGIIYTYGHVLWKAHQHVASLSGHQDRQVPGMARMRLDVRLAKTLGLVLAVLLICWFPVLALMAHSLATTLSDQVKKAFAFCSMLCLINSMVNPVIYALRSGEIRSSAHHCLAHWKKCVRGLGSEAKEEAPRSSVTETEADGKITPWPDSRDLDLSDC
Procedure: as §1
as §2, with “cannabinoid CB2” for “cannabinoid”, “CB2” for “CB1”, “[^3H]-CP-55,940” for “[3H]-CP-55,940”
as §3

ABCA1 protein = test: Detection of upregulation of ABCA1 protein in cells (ApoA-I binding, high content image analysis); format: cell-based; settings: THP-1 macrophage cells, compound at 3 μM, 24 hrs
Procedure: Detection of Upregulation of ABCA1 Protein in Cells
The ability of compounds of the invention to increase the level of ABCA1 protein is determined in replicate cultures of THP-1 macrophage cells in 96-well microplates. Cells are plated at an initial density of 100,000 cells/well in 100 μl medium and differentiated to adherent macrophages with the addition of PMA (100 nM) for 68 hrs in 10% fetal bovine serum, 3 μl/L of b-mercaptoethanol, RPMI-1640 medium. Then, cells are incubated with RPMI-1640 medium containing 1% FCS, 25 μg/ml acetylated LDL, for 24 hours at 37° C. Following incubation with acetylated LDL, cells are washed twice with 50 μl PBS and incubated with 100 μl of RPMI-1640 medium containing the compound of interest solubilized in DMSO for an additional 24 hrs. The final DMSO concentration in presence of cells is maintained at 0.5%. ApoA-I binding assay using High Content Image Analysis is initiated by replacing with fresh medium, RPMI without Phenol Red, 0.2% BSA containing AlexaFluor®647 labeled ApoA-I for 2 h/37° C./5% CO2. Then, cells are fixed with 4% Formaldehyde in PBS (15 min, RT). Following Nuclei are stained with Hoechst solution (3 μM PBS) and Cytoplasm with Cell Mask Blue (2 μg/ml PBS), 15 min, RT. Finally the stained cells are fixed with a second round of formaldehyde treatment. Fixed stained cells are washed and kept in PBS at 4° C. and can be read immediately until one month after preparation.
The Alexa Fluor 647-labeled Apolipoprotein A-I (20 nM) was prepared as follows: Human recombinant Apolipoprotein A-I (ApoA-I) was exchanged to a buffer of 0.02 M NaHCO3 at pH 8.2 on an NAP desalting column (GE Healthcare) and brought to a concentration to 40 μM (1.13 mg/ml) by adjustment with the same buffer. The ApoA-I was fluorescently labeled by incubation with Alexa Fluor carboxylic acid succimidyl ester (Alexa Fluor 647, Invitrogen A-20006) at a 2:1 molar ratio (Alexa to ApoA-I) for 1 h under shaking at RT. The remaining unconjugated label was removed by buffer exchange to 0.02M NaHCO3 at pH 8.2.
Imaging and data collection were performed on an OPERA confocal microplate imaging reader using a 20× water immersion objective and UV360 or 405 laser to identify the cell nuclei and a 635 laser to identify the fluorescent ApoA-I. Eight fields of view are captured per well. Image capture and analysis was performed with the Acapella software. Background fluorescence detected in control wells without ApoA-I was subtracted.
Using XLfit3 program (ID Business Solutions Ltd. UK), the model 205 for Dose Response One Site is used to calculate the EC50 values. […] Particularly, the compounds of the present invention have EC50 values in a range of 0.1 μM to 3 μm.

CB1 receptor affinity [% inhibition @ 10 μM] (human CB1 receptor) | CB2 receptor affinity [% inhibition @ 10 μM] (human CB2 receptor) | Compound | % increase of ABCA1 at 3 μM (ABCA1 protein)
36 % inhibition | 6 % inhibition | O=C(Nc1ccnnc1)c1cnc(OCC(F)(F)F)c(C2CCCCC2)c1 [Example 20, 5-cyclohexyl-N-pyridazin-4-yl-6-(2,2,2-trifluoro-ethoxy)-nicotinamide] | >45% @ 3 μM
38 % inhibition | −4 % inhibition | O=C(Nc1ccncn1)c1cnc(OCC(F)(F)F)c(C2CCCCC2)c1 [Example 21, 5-cyclohexyl-N-pyrimidin-4-yl-6-(2,2,2-trifluoro-ethoxy)-nicotinamide] | >45% @ 3 μM
12 % inhibition | −11 % inhibition | O=C(Nc1cncnc1)c1cnc(OCC(F)(F)F)c(C2CCCC2)c1 [Example 22, 5-cyclopentyl-N-pyrimidin-5-yl-6-(2,2,2-trifluoro-ethoxy)-nicotinamide] | >45% @ 3 μM
31 % inhibition | −3 % inhibition | O=C(Nc1ccncn1)c1cnc(OCC(F)(F)F)c(C2CCCC2)c1 [Example 23, 5-cyclopentyl-N-pyrimidin-4-yl-6-(2,2,2-trifluoro-ethoxy)-nicotinamide] | >45% @ 3 μM
10 % inhibition | −17 % inhibition | N#Cc1ccc(NC(=O)c2cnc(OCC(F)(F)F)c(C3CCCCC3)c2)cc1 [Example 24, N-(4-cyano-phenyl)-5-cyclohexyl-6-(2,2,2-trifluoro-ethoxy)-nicotinamide] | >45% @ 3 μM
27 % inhibition | 0 % inhibition | N#Cc1ccc(NC(=O)c2cnc(OCC(F)(F)F)c(C3CCCC3)c2)cc1 [Example 25, N-(4-cyano-phenyl)-5-cyclopentyl-6-(2,2,2-trifluoro-ethoxy)-nicotinamide] | >45% @ 3 μM
24 % inhibition | −2 % inhibition | O=C(Nc1ccnnc1)c1cnc(OCC(F)(F)F)c(C2CCCC2)c1 [Example 26, 5-cyclopentyl-N-pyridazin-4-yl-6-(2,2,2-trifluoro-ethoxy)-nicotinamide] | >45% @ 3 μM
18 % inhibition | 11 % inhibition | O=C(Nc1cnccn1)c1cnc(OCC(F)(F)F)c(C2CCCCC2)c1 [Example 27, 5-cyclohexyl-N-pyrazin-2-yl-6-(2,2,2-trifluoro-ethoxy)-nicotinamide] | >45% @ 3 μM
12 % inhibition | 2 % inhibition | O=C(Nc1cnccn1)c1cnc(OCC(F)(F)F)c(C2CCCC2)c1 [Example 28, 5-cyclopentyl-N-pyrazin-2-yl-6-(2,2,2-trifluoro-ethoxy)-nicotinamide] | >45% @ 3 μM
